The source made the active and inactive calls. The rule behind the calls is not given here.
Key:
[1] = tested on: Mus musculus; test: Anticonvulsant activity in albino Mus musculus (mouse) assessed as protection against maximal electroshock-induced seizures at 30 mg/kg, ip after 0.5 hr relative to control; format: functional, organism-based; parameters: dose 30 mg/kg
[2] = Partition coefficient, log P of the compound; format: physicochemical; settings: octanol/water
[3] = tested on: Mus musculus; test: Neurotoxicity in albino Mus musculus (mouse) assessed as motor impairment at 300 mg/kg, ip after 0.5 hr relative to control; format: toxicity, organism-based; parameters: dose 300 mg/kg, route intraperitoneal; settings: in vivo
[4] = tested on: Mus musculus; test: Neurotoxicity in albino Mus musculus (mouse) assessed as motor impairment at 100 mg/kg, ip after 0.5 hr relative to control; format: toxicity, organism-based; parameters: dose 100 mg/kg, route intraperitoneal; settings: in vivo
[5] = tested on: Mus musculus; test: Neurotoxicity in albino Mus musculus (mouse) assessed as motor impairment at 30 mg/kg, ip after 0.5 hr relative to control; format: toxicity, organism-based; parameters: dose 30 mg/kg, route intraperitoneal; settings: in vivo
[6] = tested on: Mus musculus; test: Anticonvulsant activity in albino Mus musculus (mouse) assessed as protection against subcutaneous pentylenetetrazol-induced seizures at 300 mg/kg, ip after 4 hr relative to control; format: functional, organism-based; parameters: dose 300 mg/kg
[7] = tested on: Mus musculus; test: Anticonvulsant activity in albino Mus musculus (mouse) assessed as protection against subcutaneous pentylenetetrazol-induced seizures at 100 mg/kg, ip after 4 hr relative to control; format: functional, organism-based; parameters: dose 100 mg/kg
[8] = tested on: Mus musculus; test: Anticonvulsant activity in albino Mus musculus (mouse) assessed as protection against subcutaneous pentylenetetrazol-induced seizures at 30 mg/kg, ip after 4 hr relative to control; format: functional, organism-based; parameters: dose 30 mg/kg
[9] = tested on: Mus musculus; test: Anticonvulsant activity in albino Mus musculus (mouse) assessed as protection against subcutaneous pentylenetetrazol-induced seizures at 300 mg/kg, ip after 0.5 hr relative to control; format: functional, organism-based; parameters: dose 300 mg/kg
[10] = tested on: Mus musculus; test: Anticonvulsant activity in albino Mus musculus (mouse) assessed as protection against subcutaneous pentylenetetrazol-induced seizures at 100 mg/kg, ip after 0.5 hr relative to control; format: functional, organism-based; parameters: dose 100 mg/kg
[11] = tested on: Mus musculus; test: Anticonvulsant activity in albino Mus musculus (mouse) assessed as protection against subcutaneous pentylenetetrazol-induced seizures at 30 mg/kg, ip after 0.5 hr relative to control; format: functional, organism-based; parameters: dose 30 mg/kg
[12] = tested on: Mus musculus; test: Anticonvulsant activity in albino Mus musculus (mouse) assessed as protection against maximal electroshock-induced seizures at 300 mg/kg, ip after 4 hr relative to control; format: functional, organism-based; parameters: dose 300 mg/kg
[13] = tested on: Mus musculus; test: Anticonvulsant activity in albino Mus musculus (mouse) assessed as protection against maximal electroshock-induced seizures at 100 mg/kg, ip after 4 hr relative to control; format: functional, organism-based; parameters: dose 100 mg/kg
[14] = tested on: Mus musculus; test: Anticonvulsant activity in albino Mus musculus (mouse) assessed as protection against maximal electroshock-induced seizures at 30 mg/kg, ip after 4 hr relative to control; format: functional, organism-based; parameters: dose 30 mg/kg
[15] = tested on: Mus musculus; test: Anticonvulsant activity in albino Mus musculus (mouse) assessed as protection against maximal electroshock-induced seizures at 300 mg/kg, ip after 0.5 hr relative to control; format: functional, organism-based; parameters: dose 300 mg/kg
[16] = tested on: Mus musculus; test: Anticonvulsant activity in albino Mus musculus (mouse) assessed as protection against maximal electroshock-induced seizures at 100 mg/kg, ip after 0.5 hr relative to control; format: functional, organism-based; parameters: dose 100 mg/kg
[17] = tested on: Mus musculus; test: Neurotoxicity in albino Mus musculus (mouse) assessed as motor impairment at 300 mg/kg, ip after 4 hr relative to control; format: toxicity, organism-based; parameters: dose 300 mg/kg, route intraperitoneal; settings: in vivo
[18] = tested on: Mus musculus; test: Neurotoxicity in albino Mus musculus (mouse) assessed as motor impairment at 100 mg/kg, ip after 4 hr relative to control; format: toxicity, organism-based; parameters: dose 100 mg/kg, route intraperitoneal; settings: in vivo
[19] = tested on: Mus musculus; test: Neurotoxicity in albino Mus musculus (mouse) assessed as motor impairment at 30 mg/kg, ip after 4 hr relative to control; format: toxicity, organism-based; parameters: dose 30 mg/kg, route intraperitoneal; settings: in vivo
[20] = tested on: Mus musculus; test: Anticonvulsant activity in albino Mus musculus (mouse) assessed as protection against subcutaneous pentylenetetrazol-induced seizures at 30 mg/kg, sc after 4 hr relative to control; format: functional, organism-based; parameters: dose 30 mg/kg
[21] = tested on: Mus musculus; test: Anticonvulsant activity in albino Mus musculus (mouse) assessed as protection against subcutaneous pentylenetetrazol-induced seizures at 30 mg/kg, sc after 0.5 hr relative to control; format: functional, organism-based; parameters: dose 30 mg/kg
[22] = tested on: Mus musculus; test: Anticonvulsant activity in albino Mus musculus (mouse) assessed as protection against maximal electroshock-induced seizures at 30 mg/kg, sc after 4 hr relative to control; format: functional, organism-based; parameters: dose 30 mg/kg
[23] = tested on: Mus musculus; test: Anticonvulsant activity in albino Mus musculus (mouse) assessed as protection against maximal electroshock-induced seizures at 30 mg/kg, sc after 0.5 hr relative to control; format: functional, organism-based; parameters: dose 30 mg/kg
[24] = tested on: Mus musculus; test: Neurotoxicity in albino Mus musculus (mouse) assessed as motor impairment at 30 mg/kg, sc after 4 hr relative to control; format: toxicity, organism-based; parameters: dose 30 mg/kg, route subcutaneous; settings: in vivo
[25] = tested on: Mus musculus; test: Neurotoxicity in albino Mus musculus (mouse) assessed as motor impairment at 30 mg/kg, sc after 0.5 hr relative to control; format: toxicity, organism-based; parameters: dose 30 mg/kg, route subcutaneous; settings: in vivo

| SMILES | Activity [1] | logP [2] | Activity [3] | Activity [4] | Activity [5] | Activity [6] | Activity [7] | Activity [8] | Activity [9] | Activity [10] | Activity [11] | Activity [12] | Activity [13] | Activity [14] | Activity [15] | Activity [16] | Activity [17] | Activity [18] | Activity [19] | other results |
| --- | --- | --- | --- | --- | --- | --- | --- | --- | --- | --- | --- | --- | --- | --- | --- | --- | --- | --- | --- | --- |
| NC(=S)N1N=C(c2ccccn2)CC1c1cccc2ccccc12 (centres undefined) | Active | 4.51 | Non-toxic | Non-toxic | Non-toxic | Active | inactive | inactive | Active | Active | inactive | Active | Active | inactive | Active | Active | Non-toxic | Non-toxic | Non-toxic |  |
| CCNC(=S)N1N=C(c2ccccn2)CC1c1cccc2ccccc12 (centres undefined) | inactive | 4.7 | Non-toxic | Non-toxic | Non-toxic | Active | inactive | inactive | Active | Active | inactive | Active | inactive | inactive | Active | Active | Non-toxic | Non-toxic | Non-toxic |  |
| CCNC(=S)N1N=C(c2ccccn2)CC1c1cccc(Cl)c1 (centres undefined) | inactive | 3.2 |  | Non-toxic | Non-toxic | inactive | inactive | inactive | Active | inactive | inactive | inactive | inactive | inactive | Active | Active | Non-toxic | Non-toxic | Non-toxic |  |
| NC(=S)N1N=C(c2ccccn2)CC1c1ccc(Cl)cc1 (centres undefined) | inactive | 4.21 |  | Non-toxic | Non-toxic | inactive | inactive | inactive | Active | inactive | inactive | Active | inactive | inactive | Active | Active | Non-toxic | Non-toxic | Non-toxic |  |
| COc1ccc(C2CC(c3ccccn3)=NN2C(N)=S)cc1 (centres undefined) | inactive | 2.82 | Non-toxic | Non-toxic | Non-toxic | inactive | inactive | inactive | Active | Active | inactive | inactive | inactive | inactive | inactive | inactive | Non-toxic | Non-toxic | Non-toxic |  |
| CCNC(=S)N1N=C(c2ccccn2)CC1c1ccc(Cl)cc1 (centres undefined) | inactive | 3.64 | Non-toxic | Non-toxic | Non-toxic | inactive | inactive | inactive | Active | inactive | inactive | inactive | inactive | inactive | Active | Active | Non-toxic | Non-toxic | Non-toxic |  |
| CCNC(=S)N1N=C(c2ccccn2)CC1c1ccc(OCc2ccccc2)cc1 (centres undefined) | inactive | 1.46 |  | Non-toxic | Non-toxic | inactive | inactive | inactive | Active | inactive | inactive | inactive | inactive | inactive | Active | Active | Non-toxic | Non-toxic | Non-toxic |  |
| NC(=S)N1N=C(c2ccccn2)CC1c1ccc(OCc2ccccc2)cc1 (centres undefined) | inactive | 1.17 | Toxic | Toxic |  | inactive | inactive | inactive | inactive | inactive | inactive | inactive | inactive | inactive | inactive | inactive |  |  | Non-toxic |  |
| CCC1(c2ccccc2)C(=O)NC(=O)NC1=O [PHENOBARBITAL] |  |  |  |  |  |  |  |  |  |  |  |  |  |  |  |  |  |  |  | Activity [20]: Active; Activity [21]: Active; Activity [22]: Active; Activity [23]: Active; Activity [24]: Non-toxic; Activity [25]: Non-toxic |
| CCNC(=S)N1N=C(c2ccccn2)CC1c1ccc(OC)cc1 (centres undefined) | inactive | 2.92 | Non-toxic | Non-toxic | Non-toxic | Active | inactive | inactive | Active | Active | Active | inactive | inactive | inactive | inactive | inactive | Non-toxic | Non-toxic | Non-toxic |  |
| NC(=S)N1N=C(c2ccccn2)CC1c1cccc(Cl)c1 (centres undefined) | Active | 4.15 |  | Non-toxic | Non-toxic | Active | inactive | inactive | Active | inactive | inactive | Active | inactive | inactive | Active | Active | Non-toxic | Non-toxic | Non-toxic |  |

— ChEMBL document CHEMBL3045568, “Novel 2-pyrazoline derivatives as potential anticonvulsant agents” (Med Chem Res, 2013)
